This is an account of results in PMC2874416 (Beilstein Journal of Organic Chemistry, 2010).

Assay [1] deals with α-galactosidase A. On the set-up: method as in PMID 17894781, PMID 18381081, PMID 19387866, PMID 19287194. To be noted: cultured Fabry patient cell lines, incubation for five days, 49 missense mutant forms; cited from earlier work.
In assay [2] the test system is tissue globotriaosylceramide levels. On the set-up: method as in PMID 19773742. To be noted: mouse model; cited from earlier work.
Assay [3] deals with T1, green coffee bean α-galactosidase (Coffea arabica, UniProt Q42656).
T1 construct: made in house
T1 sequence (Q42656 16-378): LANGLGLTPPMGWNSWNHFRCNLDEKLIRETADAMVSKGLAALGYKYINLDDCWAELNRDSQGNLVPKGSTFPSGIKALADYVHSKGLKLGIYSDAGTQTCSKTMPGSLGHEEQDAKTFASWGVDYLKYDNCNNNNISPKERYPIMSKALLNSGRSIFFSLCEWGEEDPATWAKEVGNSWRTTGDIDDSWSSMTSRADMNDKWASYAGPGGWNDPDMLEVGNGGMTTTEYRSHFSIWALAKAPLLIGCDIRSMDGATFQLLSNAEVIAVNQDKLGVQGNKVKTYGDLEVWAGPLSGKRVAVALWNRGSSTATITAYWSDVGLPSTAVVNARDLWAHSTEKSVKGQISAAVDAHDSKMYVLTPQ
As to the kind of experiment: Inhibition of green coffee bean α-galactosidase, Ki by kinetic studies. In kind it is biochemical. Particulars: 37 °C, pH 6.5, substrate PNP-Gal; read-out: Ki α-gal GCB. The protocol:
Green coffee bean α-galactosidase was purified and assayed as described.
Kinetic studies were performed at 37°C in 50 mM sodium phosphate buffer, pH 6.5 containing 0.1% serum albumin. Reactions were initiated by the addition of enzyme (final concentration = 0.3 µg/mL), bringing the total volume to 200µL. Reaction rates were measured by monitoring the release of p-nitrophenolate (λ = 400 nm, ε = […]) from PNP-Gal by means of a UNICAM 8700 UV-Vis spectrophotometer equipped with a circulating water bath. Inhibition studies were performed by varying […]
concentrations of both PNP-Gal and inhibitor. Ki values were calculated by direct fit of the initial rates to the equation below using Grafit. […]

Assay [4] deals with T2, E. coli β-galactosidase (Escherichia coli, UniProt P00722).
T2 construct: purchased Sigma Chemicals
T2 sequence (P00722 2-1024 limits assumed): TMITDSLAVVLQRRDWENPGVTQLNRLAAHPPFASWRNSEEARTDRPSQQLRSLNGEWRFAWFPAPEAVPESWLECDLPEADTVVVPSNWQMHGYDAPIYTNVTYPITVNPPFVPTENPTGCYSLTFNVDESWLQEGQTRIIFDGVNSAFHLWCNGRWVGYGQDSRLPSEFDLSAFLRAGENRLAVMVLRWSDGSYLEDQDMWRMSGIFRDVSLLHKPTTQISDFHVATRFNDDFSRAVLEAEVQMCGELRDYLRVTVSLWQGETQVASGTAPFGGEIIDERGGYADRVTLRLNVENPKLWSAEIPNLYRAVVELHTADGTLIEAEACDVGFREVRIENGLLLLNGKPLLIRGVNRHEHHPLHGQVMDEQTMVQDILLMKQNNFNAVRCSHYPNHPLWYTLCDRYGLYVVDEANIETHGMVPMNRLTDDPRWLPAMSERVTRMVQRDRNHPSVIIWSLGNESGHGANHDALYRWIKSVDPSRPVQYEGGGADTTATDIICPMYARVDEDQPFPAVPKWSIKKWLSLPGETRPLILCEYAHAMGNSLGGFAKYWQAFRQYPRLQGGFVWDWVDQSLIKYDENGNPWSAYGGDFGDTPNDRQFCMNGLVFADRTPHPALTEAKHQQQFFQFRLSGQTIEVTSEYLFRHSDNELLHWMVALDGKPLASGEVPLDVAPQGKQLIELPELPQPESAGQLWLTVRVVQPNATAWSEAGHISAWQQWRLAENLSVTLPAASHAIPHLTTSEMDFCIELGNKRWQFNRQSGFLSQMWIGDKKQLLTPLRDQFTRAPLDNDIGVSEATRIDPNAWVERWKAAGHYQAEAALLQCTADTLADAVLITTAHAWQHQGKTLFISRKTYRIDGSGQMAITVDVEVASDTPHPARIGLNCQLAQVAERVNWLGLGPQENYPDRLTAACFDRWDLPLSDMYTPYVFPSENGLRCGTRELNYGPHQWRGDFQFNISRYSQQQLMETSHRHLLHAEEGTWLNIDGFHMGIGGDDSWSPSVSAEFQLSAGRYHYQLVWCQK
As to the kind of experiment: Inhibition of E. coli β-galactosidase, Ki by kinetic studies. Type of assay: biochemical. The protocol: E. coli β-galactosidase was purchased from Sigma Chemicals. Kinetic studies were performed at 37°C in 100 mM sodium phosphate buffer, pH 7.0 containing 0.1% serum albumin. Rates of reaction were determined as a function of both varying substrate and inhibitor concentration over the concentration ranges indicated below.
Data obtained were analysed using a nonlinear regression analysis program GraFit, p-nitrogalactopyranoside (Km = 0.03 mM), 0.045 – 0.3 mM). […]

Assay [5] deals with T3, Agrobacterium sp. β-glucosidase/galactosidase (Agrobacterium sp., UniProt P12614).
T3 construct: made in house
T3 sequence (P12614 1-459): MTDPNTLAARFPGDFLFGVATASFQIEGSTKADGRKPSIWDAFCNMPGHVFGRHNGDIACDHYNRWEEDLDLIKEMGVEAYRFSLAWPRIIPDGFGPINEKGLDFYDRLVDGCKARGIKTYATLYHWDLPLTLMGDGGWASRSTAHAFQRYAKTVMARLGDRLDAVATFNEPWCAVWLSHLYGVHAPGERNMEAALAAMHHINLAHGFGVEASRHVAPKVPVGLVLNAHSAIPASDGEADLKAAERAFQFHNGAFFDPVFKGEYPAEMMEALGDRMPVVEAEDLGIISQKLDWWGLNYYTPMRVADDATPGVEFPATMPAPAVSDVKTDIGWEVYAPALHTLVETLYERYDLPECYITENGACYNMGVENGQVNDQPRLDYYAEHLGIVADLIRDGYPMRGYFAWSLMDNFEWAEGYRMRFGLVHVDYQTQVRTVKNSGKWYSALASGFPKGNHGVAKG
Briefly: Inhibition of Agrobacterium sp. β-glucosidase/galactosidase (Abg), Ki by kinetic studies. Type of assay: biochemical. The protocol: glycosidase was purified and assayed as described. Kinetic studies were performed at 37 °C in pH 7.0 sodium phosphate buffer (50 mM) containing 0.1 % bovine serum albumin, using 7.2 x 10-5 mg/mL enzyme. Approximate values of Ki were determined using a fixed concentration of substrate, 4-nitrophenyl β-D- […]
times to 5 times the Ki value ultimately determined. A horizontal line drawn through […]
an inhibitor concentration equal to -Ki. Full Ki determinations where required, were performed using the same range of inhibitor concentrations while also varying substrate (4-nitrophenyl glucoside) concentrations from approximately 0.015 mM to 0.6 mM. Data were analysed by direct fit to the Michaelis Menten equation describing reaction in the presence of inhibitors using the program GraFit. […]

Assay [6] deals with β-galactosidase mutant feline fibroblast cell line. As to the kind of experiment: Chemical chaperone activity in β-galactosidase mutant feline fibroblast cell line. Type of assay: cell-based. Particulars: preliminary; for increase of enzyme activity of β-galactosidase mutant: concentration 100 µM.
For assay [7], the target named is T4, human lysosomal β-galactosidase (Homo sapiens, UniProt P16278).
T4 sequence (P16278 29-677): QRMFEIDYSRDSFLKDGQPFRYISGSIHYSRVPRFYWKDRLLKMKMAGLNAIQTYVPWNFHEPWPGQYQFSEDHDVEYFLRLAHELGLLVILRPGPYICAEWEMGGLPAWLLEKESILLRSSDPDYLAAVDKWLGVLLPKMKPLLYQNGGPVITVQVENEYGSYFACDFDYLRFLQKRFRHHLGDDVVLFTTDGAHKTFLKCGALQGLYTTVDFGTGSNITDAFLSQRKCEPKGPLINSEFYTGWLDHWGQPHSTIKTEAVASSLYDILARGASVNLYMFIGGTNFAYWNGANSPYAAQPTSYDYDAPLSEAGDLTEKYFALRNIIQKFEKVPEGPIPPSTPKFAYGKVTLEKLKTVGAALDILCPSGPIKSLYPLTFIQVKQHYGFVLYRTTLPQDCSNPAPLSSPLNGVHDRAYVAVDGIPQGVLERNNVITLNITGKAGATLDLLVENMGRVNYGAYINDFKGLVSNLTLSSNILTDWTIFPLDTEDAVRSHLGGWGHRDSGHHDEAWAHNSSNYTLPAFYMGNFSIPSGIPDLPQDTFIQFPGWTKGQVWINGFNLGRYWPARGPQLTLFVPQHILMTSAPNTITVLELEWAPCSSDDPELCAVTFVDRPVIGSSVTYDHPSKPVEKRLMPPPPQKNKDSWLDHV
As to the kind of experiment: Inhibition of human lysosomal β-galactosidase. Type of assay: biochemical.

Assay [8] has as its system β-galactosidase. On the set-up: method as in PMID 19812739. Particulars: GM1-gangliosidosis model mice, orally administered; cited from earlier work.
Setting [9] is: 37 °C, pH 7.0, read-out: Ki β-gal E. coli.

Structures are written as SMILES. Where two headings read alike, the source gives them in different places.

Regarding `OC[C@H]1NC[C@H](O)[C@@H](O)[C@H]1O` [Compound 4, 1-Deoxygalactonojirimycin], the “increase of α-galactosidase A levels” value in assay [1] was 1.5 to 28 fold. For the same compound, in assay [2], the tissue globotriaosylceramide levels entry is “reduce tissue globotriaosylceramide levels”.
`CC(C)c1ccc(C(=O)NCCCCCCN2C[C@H](O)[C@@H](O)[C@@H](O)[C@H]2CO)cc1` [Compound 16]: the Ki was determined as 2.6 µM in assay [3], 1.3 µM in assay [4] and 13 µM in assay [5].
Consider `O=C(NCCCCCCN1C[C@H](O)[C@@H](O)[C@@H](O)[C@H]1CO)c1cccnc1` [Compound 17], for which the Ki in assay [3] turned out to be 2.2 µM; in assay [4] (setting [9]), 0.83 µM; in assay [5], 1.5 µM. In addition, the “increase of enzyme activity of β-galactosidase mutant” value in assay [6] is on record as “up to 5.5 fold”.
Consider `CN(C)c1ccc(C(=O)NCCCCCCN2C[C@H](O)[C@@H](O)[C@@H](O)[C@H]2CO)cc1` [Compound 18], for which the Ki came to 0.49 µM in assay [3], 1.1 µM in assay [4] (setting [9]) and 3.8 µM in assay [5]. For the same compound, the “increase of relative enzyme activity of β-galactosidase mutant” value in assay [6] (concentration 2 µM) stood at 4.8 fold.
Consider `O=C(CCCc1ccc2ccc3cccc4ccc1c2c34)NCCCCCCN1C[C@H](O)[C@@H](O)[C@@H](O)C1CO` (stereo partly shown) [Compound 19], for which the Ki amounted to 7 µM in assay [3], 0.25 µM in assay [4] and 0.06 µM in assay [5].
On to `CC(C)(C)OC(=O)NCCCCCCN1C[C@H](O)[C@@H](O)[C@@H](O)[C@H]1CO` [Compound 20], for which the Ki in assay [3] came out at 4.3 µM; in assay [4] (setting [9]), 2.4 µM; in assay [7] it was 2 µM; in assay [5] (read-out: Ki β-glu/gal Abg, 37 °C, pH 7.0, substrate 4-nitrophenyl β-D-glucopyranoside), 3 µM. Moreover, in assay [7], the IC50 (usually the concentration that gives 50% inhibition) stood at 10.9 µM.
Regarding `O=C(NCCCCCCN1C[C@H](O)[C@@H](O)[C@@H](O)[C@H]1CO)OCc1ccccc1` [Compound 22], the Ki in assay [3] amounted to 2.2 µM; in assay [4] (setting [9]), 0.4 µM; in assay [7], 0.72 µM; in assay [5] it was 6 µM. The “increase of enzyme activity of β-galactosidase mutant” value in assay [6] was “up to 5.5 fold”. In assay [7], this compound gave an IC50 of 3.26 µM.
Regarding `CCCCCCCCN[C@@H]1C=C(CO)[C@H](O)[C@H](O)[C@H]1O` [N-octyl-4-epi-β-valienamine], the “β-galactosidase activity in brain after oral administration” value in assay [8] is “enhancing β-galactosidase activity”.
